Nine compounds from ChEMBL document CHEMBL5113463, “Discovery and preclinical evaluations of JBD0131, a novel nitrodihydro-imidazooxazole anti-tuberculosis agent” (Bioorg Med Chem Lett, 2022) can be followed below.

Values after ≈ are worked out from the molar mass of the structure shown.

The subject of data set [1] is Mycobacterium tuberculosis. Description: Antimycobacterial activity against Mycobacterium tuberculosis H37Rv assessed as bacterial growth inhibition incubated for 7 days by MABA assay. Format: functional. As to conditions: 168 h, time 7 day.
Data set [2] in a line: Cytotoxicity against African green monkey vero cells assessed as reduction in cell viability. The data set is classed as toxicity, cell-based. As to conditions: chlorocebus sabaeus.
Data set [3] in a line: Volume of distribution in CD-1 mouse at 0.6 mg/kg, iv. The data set is classed as ADME, organism-based. As to conditions: in vivo.
Data set [4] can be described thus: Half life in CD-1 mouse at 0.6 mg/kg, iv. Format: ADME, organism-based. As to conditions: in vivo.
A short description of data set [5]: Cmax in CD-1 mouse at 5 mg/kg, po. The data set is classed as ADME, organism-based. Further details: dose 5 mg/kg, route po. As to conditions: in vivo.
A short description of data set [6]: AUC (0-last) in CD-1 mouse at 5 mg/kg, po. The data set is classed as ADME, organism-based. Further details: dose 5 mg/kg, route po. As to conditions: in vivo; for AUClast: mouse; for AUC(0-t): CD-1, mouse.
The nature of data set [7]: Oral bioavailability in CD-1 mouse at 5 mg/kg. The data set is classed as ADME, organism-based. As to conditions: in vivo; for F: mouse, po, 5 mg/kg; for bioavailability: CD-1, mouse.
Data set [8] in a line: Metabolic stability in human liver microsomes assessed as half life. The data set is classed as ADME, Microsome.
Data set [9] in a line: Metabolic stability in rat liver microsomes assessed as half life. The data set is classed as ADME, Microsome.
Data set [10] is described as follows: Metabolic stability in mouse liver microsomes assessed as half life. The data set is classed as ADME, Microsome.
The subject of data set [11] is Mycobacterium tuberculosis. Description: Antimycobacterial activity against Mycobacterium tuberculosis H37Rv assessed as bacterial growth inhibition incubated for 10 days under hypoxic condition followed by 28 hrs incubation under normoxic condition by Low-Oxygen-Recovery Assay. As to conditions: 264 h, time 11 day. Format: functional.
A short description of data set [12]: Clearance in CD-1 mouse at 0.6 mg/kg, iv. The data set is classed as ADME, organism-based. As to conditions: in vivo.
Data set [13] relates to Mycobacterium tuberculosis. Description: Antimycobacterial activity against clinical isolate drug susceptible Mycobacterium tuberculosis H37Rv assessed as bacterial growth inhibition. Format: functional.

For `C[C@]1(CN2Cc3nc(-c4ccc(F)cc4F)sc3C2)Cn2cc([N+](=O)[O-])nc2O1`, the minimum inhibitory concentration (MIC) in data set [1] was < 0.013 µg/mL. Besides, the CC50 in data set [2] was > 32 µg/mL. Further, the Vd in [3] was 2.66 L/kg. The compound also gave a half-life in [4] of 185 min. In data set [5], this compound gave a Cmax of 182 ng/mL. The compound also registered an AUClast in [6] of 1789 ng·h/mL. Also, in [7], the F worked out at 9.6%.
Consider `C[C@]1(CN2CCc3nc(-c4ccc(F)cc4)sc3CC2)Cn2cc([N+](=O)[O-])nc2O1`, for which the half-life is 15 min in data set [8], 8 min in data set [9] and 7 min in data set [10]. The minimum inhibitory concentration (MIC) in data set [1] is 0.03 µg/mL (≈ 0.0699 µM); in data set [11], > 8 µg/mL. For the same compound, in [2], the CC50 is > 32 µg/mL.
Turning to `C[C@]1(CN2Cc3nc(-c4ccc(F)cc4)oc3C2)Cn2cc([N+](=O)[O-])nc2O1`, the half-life in data set [8] stood at 59 min; in data set [9] it was 39 min; in data set [10], 43 min. The MIC in data set [1] amounted to 0.021 µg/mL (≈ 0.0545 µM). For the same compound, in [2], the 50% cytotoxic concentration (CC50) is > 32 µg/mL.
As for `C[C@]1(CN2Cc3nc(-c4ccc(F)cn4)sc3C2)Cn2cc([N+](=O)[O-])nc2O1`, in data set [1], the MIC was 0.03 µg/mL (≈ 0.0746 µM). Further, the CC50 in [2] is > 32 µg/mL. The same compound yielded a clearance in [12] of 12.7 mL/min/kg. This compound showed a Vd in data set [3] of 2.02 L/kg. For the same compound, the half-life in [4] is 103 min. For the same compound, the concentration in data set [5] peaked (Cmax) at 385 ng/mL. This compound also registered an AUC(0-t) in [6] of 2920 ng·h/mL. The compound further showed a bioavailability in data set [7] of 24.5%.
As to `Cc1cc(F)ccc1-c1nc2c(s1)CN(C[C@@]1(C)Cn3cc([N+](=O)[O-])nc3O1)C2`, in data set [1], the MIC is < 0.013 µg/mL. In addition, the CC50 in [2] was > 32 µg/mL. Besides, in [3], the Vd was 3.38 L/kg. Moreover, the half-life in [4] was 124 min. In addition, the Cmax in data set [5] worked out at 201 ng/mL. The AUClast in data set [6] turned out to be 1441 ng·h/mL. Besides, the F in data set [7] worked out at 20.5%.
As to `NC[C@H]1O[C@H](O[C@H]2[C@H](O)[C@@H](O[C@H]3O[C@H](CO)[C@@H](O)[C@H](N)[C@H]3O)[C@H](N)C[C@@H]2N)[C@H](O)[C@@H](O)[C@@H]1O` [KANAMYCIN], in [13], the MIC50 is 1.22 µg/mL (≈ 2.52 µM) and the MIC90 came out at 1.91 µg/mL (≈ 3.94 µM).
Regarding `NNC(=O)c1ccncc1` [ISONIAZID], in [13], the MIC50 was found to be 0.024 µg/mL (≈ 0.175 µM) and the MIC90 was determined as 0.034 µg/mL (≈ 0.248 µM).
As to `C[C@]1(CN2CCc3nc(-c4ccc(F)cc4)ccc3C2)Cn2cc([N+](=O)[O-])nc2O1`, the results for the half-life in [8], in data set [9] and in [10] were 25 min, 6 min and 22 min, respectively. The minimal inhibitory concentration (MIC) in data set [1] is < 0.031 µg/mL; in data set [11], 4.83 µg/mL (≈ 11.8 µM). The CC50 in data set [2] was > 32 µg/mL.
Take `C[C@]1(CN2Cc3nc(-c4ncc(F)cc4F)sc3C2)Cn2cc([N+](=O)[O-])nc2O1`: in data set [1], the MIC came to 0.06 µg/mL (≈ 0.143 µM). The CC50 in [2] is > 32 µg/mL. The compound also registered a clearance in data set [12] of 13.8 mL/min/kg. The same compound registered a Vd in [3] of 1.57 L/kg. The compound further had a half-life in data set [4] of 84 min. For the same compound, the maximum concentration (Cmax) in data set [5] was 1010 ng/mL. Besides, the AUC(0-t) in data set [6] was 4990 ng·h/mL. For the same compound, the bioavailability in [7] came out at 57.9%.
